Measurements as given in patent US12258327B2, “5-membered heteroaryl-containing aminopyridine compounds as EGFR inhibitors” (YUHAN CORPORATION, priority 2021, dated 2025).

How the values were obtained:
EGFR del19/T790M/C797S = EGFR del19/T790M/C797S (Homo sapiens, UniProt P00533, C797S/DEL746-750/T790M); assay: Biochemical EGFR kinase assay (Lance Ultra TR-FRET), triple mutant del19/T790M/C797S; conditions: Km ATP; read-out: IC50 del19/T790M/C797S (nM) Km ATP
Procedure, shortened: (§1)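 Kinase activity is measured by TR-FRET phosphopeptide detection. Compounds span 0.003 μM to 10 μM; the 1 h reaction at room temperature is quenched with EDTA, then labelled antibody (2 nM) is incubated 60 min before reading.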

EGFR L858R/T790M/C797S = EGFR L858R/T790M/C797S (Homo sapiens, UniProt P00533, C797S/L858R/T790M); assay: Biochemical EGFR kinase assay (Lance Ultra TR-FRET), triple mutant L858R/T790M/C797S; conditions: Km ATP; read-out: IC50 L858R/T790M/C797S (nM) Km ATP
Sequence of EGFR L858R/T790M/C797S (P00533 25-1210 T790M/C797S/L858R): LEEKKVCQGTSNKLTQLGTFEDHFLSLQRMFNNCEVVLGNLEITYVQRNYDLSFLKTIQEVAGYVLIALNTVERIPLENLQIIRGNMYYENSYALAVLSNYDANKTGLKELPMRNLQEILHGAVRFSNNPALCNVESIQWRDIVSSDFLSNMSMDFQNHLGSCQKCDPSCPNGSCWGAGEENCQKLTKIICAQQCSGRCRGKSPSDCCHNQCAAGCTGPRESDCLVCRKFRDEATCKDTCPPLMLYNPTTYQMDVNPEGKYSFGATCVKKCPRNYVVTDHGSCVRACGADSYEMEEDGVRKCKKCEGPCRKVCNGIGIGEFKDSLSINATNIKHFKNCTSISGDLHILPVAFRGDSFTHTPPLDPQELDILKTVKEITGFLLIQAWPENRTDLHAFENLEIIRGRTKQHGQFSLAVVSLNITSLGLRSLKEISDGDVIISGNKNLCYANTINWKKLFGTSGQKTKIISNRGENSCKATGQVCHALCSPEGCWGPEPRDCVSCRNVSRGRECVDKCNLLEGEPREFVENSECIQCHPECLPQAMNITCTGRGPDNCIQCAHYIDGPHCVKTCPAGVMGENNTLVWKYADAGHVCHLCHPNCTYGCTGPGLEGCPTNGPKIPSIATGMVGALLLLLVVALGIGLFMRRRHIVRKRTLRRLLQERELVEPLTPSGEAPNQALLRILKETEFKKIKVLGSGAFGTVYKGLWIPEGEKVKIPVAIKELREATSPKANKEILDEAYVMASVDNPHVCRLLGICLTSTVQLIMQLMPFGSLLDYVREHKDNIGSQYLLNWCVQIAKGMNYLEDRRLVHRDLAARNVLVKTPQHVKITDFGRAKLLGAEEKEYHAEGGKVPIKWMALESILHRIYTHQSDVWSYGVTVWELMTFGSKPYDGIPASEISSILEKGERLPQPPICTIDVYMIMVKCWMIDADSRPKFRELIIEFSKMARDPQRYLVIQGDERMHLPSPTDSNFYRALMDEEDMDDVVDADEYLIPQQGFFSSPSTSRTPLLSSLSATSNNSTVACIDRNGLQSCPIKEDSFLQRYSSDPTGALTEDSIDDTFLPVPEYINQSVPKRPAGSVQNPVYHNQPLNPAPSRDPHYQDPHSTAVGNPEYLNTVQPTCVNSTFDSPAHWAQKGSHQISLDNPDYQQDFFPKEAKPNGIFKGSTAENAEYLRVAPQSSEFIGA
Procedure, shortened: as §1

EGFR wildtype (WT) = EGFR wildtype (WT) (Homo sapiens, UniProt P00533); assay: Biochemical EGFR kinase assay (Lance Ultra TR-FRET), wildtype; conditions: Km ATP; read-out: IC50 WT (nM) Km ATP
Sequence of EGFR wildtype (WT) (P00533 25-1210): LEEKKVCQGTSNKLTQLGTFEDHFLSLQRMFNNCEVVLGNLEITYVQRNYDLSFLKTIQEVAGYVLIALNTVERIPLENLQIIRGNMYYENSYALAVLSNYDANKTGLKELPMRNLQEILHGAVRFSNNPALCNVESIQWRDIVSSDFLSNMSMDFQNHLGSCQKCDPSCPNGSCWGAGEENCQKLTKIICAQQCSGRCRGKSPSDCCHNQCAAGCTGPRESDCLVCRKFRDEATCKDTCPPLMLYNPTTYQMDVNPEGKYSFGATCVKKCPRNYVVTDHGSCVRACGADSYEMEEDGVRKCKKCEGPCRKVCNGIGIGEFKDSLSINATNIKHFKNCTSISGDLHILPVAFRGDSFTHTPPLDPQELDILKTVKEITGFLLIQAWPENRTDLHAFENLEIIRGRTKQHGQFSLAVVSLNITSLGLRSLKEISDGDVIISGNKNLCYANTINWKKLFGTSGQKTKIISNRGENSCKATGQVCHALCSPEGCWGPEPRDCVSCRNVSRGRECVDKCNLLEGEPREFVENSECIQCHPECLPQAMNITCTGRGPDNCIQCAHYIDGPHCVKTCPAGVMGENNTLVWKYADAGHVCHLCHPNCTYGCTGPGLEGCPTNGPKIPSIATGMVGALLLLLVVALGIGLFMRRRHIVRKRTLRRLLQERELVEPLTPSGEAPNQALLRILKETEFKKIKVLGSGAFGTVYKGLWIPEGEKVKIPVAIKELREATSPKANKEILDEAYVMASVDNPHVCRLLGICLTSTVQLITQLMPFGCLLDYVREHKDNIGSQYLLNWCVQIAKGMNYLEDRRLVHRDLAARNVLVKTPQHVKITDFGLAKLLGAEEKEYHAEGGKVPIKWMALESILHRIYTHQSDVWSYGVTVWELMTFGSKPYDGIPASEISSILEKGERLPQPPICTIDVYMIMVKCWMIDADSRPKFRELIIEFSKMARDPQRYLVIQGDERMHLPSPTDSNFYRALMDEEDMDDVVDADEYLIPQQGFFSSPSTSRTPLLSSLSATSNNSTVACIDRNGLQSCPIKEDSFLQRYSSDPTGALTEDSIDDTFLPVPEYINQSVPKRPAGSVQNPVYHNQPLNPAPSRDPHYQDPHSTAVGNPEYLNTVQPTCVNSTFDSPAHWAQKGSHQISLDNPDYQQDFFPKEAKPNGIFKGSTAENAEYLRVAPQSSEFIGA
Procedure, shortened: as §1

EGFR del19/C797S = EGFR del19/C797S (Homo sapiens, UniProt P00533, C797S/DEL746-750); assay: Biochemical EGFR kinase assay (Lance Ultra TR-FRET), double mutant del19/C797S; conditions: Km ATP; read-out: IC50 del19/C797S (nM) Km ATP
Procedure, shortened: as §1

EGFR L858R/C797S = EGFR L858R/C797S (Homo sapiens, UniProt P00533, C797S/L858R); assay: Biochemical EGFR kinase assay (Lance Ultra TR-FRET), double mutant L858R/C797S; conditions: Km ATP; read-out: IC50 L858R/C797S (nM) Km ATP
Sequence of EGFR L858R/C797S (P00533 25-1210 C797S/L858R): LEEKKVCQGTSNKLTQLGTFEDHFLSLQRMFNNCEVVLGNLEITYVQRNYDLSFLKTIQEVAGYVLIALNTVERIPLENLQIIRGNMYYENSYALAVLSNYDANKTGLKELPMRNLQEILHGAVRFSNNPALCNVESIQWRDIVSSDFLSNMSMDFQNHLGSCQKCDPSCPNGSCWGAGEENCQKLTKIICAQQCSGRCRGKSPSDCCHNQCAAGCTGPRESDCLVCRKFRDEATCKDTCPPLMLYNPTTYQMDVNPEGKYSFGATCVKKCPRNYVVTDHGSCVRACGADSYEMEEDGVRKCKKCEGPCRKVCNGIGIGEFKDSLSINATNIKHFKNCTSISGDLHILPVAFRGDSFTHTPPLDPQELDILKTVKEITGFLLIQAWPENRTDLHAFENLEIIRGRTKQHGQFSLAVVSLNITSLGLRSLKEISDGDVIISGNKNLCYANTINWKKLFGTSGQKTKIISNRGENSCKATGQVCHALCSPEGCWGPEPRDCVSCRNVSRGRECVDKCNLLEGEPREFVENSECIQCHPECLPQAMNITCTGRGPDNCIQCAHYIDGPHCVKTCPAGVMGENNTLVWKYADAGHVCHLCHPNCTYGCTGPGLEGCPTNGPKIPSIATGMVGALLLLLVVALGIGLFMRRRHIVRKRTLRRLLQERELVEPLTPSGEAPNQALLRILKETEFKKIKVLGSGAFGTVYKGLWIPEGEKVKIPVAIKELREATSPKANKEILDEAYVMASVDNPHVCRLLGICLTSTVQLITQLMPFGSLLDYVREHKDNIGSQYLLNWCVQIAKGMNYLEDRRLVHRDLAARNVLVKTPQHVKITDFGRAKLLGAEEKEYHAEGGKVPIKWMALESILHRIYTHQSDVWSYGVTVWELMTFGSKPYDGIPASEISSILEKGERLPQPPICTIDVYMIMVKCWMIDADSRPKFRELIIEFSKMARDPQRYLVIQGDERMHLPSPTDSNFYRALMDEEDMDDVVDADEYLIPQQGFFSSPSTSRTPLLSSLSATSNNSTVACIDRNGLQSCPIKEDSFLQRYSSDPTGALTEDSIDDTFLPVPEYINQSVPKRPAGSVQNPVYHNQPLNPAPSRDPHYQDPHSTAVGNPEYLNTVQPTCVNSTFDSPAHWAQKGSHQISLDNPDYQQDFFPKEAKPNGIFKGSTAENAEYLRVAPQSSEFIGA
Procedure, shortened: as §1

Sequence of EGFR del19/T790M/C797S (P00533 with tags, fused parts or gaps DEL746-750/T790M/C797S): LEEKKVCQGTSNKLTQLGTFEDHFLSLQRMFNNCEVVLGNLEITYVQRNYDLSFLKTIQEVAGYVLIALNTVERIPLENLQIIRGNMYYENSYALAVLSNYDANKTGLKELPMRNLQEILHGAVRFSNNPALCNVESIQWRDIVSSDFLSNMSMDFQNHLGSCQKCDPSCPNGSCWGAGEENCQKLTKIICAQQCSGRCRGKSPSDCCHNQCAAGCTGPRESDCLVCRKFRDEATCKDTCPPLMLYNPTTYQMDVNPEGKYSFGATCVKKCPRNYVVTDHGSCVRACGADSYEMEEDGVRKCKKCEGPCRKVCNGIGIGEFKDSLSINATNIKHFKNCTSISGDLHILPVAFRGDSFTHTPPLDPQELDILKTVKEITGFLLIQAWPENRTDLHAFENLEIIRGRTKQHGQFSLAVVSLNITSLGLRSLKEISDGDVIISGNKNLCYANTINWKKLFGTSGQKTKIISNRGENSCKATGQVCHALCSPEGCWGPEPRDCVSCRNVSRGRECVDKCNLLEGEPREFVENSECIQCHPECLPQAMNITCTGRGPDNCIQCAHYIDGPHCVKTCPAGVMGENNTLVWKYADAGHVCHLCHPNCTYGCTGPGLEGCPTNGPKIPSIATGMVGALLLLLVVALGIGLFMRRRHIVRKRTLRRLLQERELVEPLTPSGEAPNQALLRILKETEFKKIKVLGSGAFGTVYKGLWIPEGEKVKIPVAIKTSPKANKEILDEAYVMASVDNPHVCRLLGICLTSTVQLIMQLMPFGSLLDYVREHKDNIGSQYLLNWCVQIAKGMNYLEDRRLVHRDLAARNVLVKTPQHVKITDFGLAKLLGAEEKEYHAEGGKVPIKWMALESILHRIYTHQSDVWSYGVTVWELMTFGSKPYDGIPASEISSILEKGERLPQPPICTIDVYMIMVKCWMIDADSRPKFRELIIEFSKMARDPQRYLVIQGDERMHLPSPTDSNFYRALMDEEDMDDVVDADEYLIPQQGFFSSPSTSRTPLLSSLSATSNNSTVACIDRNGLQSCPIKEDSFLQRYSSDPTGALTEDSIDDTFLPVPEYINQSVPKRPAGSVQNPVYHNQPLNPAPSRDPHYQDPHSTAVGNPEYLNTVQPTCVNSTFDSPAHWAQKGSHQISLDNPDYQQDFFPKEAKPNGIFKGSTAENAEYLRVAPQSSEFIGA

| SMILES | IC50 (EGFR del19/T790M/C797S) | IC50 (EGFR L858R/T790M/C797S) | IC50 (EGFR wildtype (WT)) | IC50 (EGFR del19/C797S) | IC50 (EGFR L858R/C797S) |
| --- | --- | --- | --- | --- | --- |
| C[C@]1(O)CC[C@@H](Nc2cc(Nc3ccnc(-c4cnn(CCF)c4)n3)ncc2-c2ccn(C(F)F)n2)CC1 [Example 145, (1s,4s)-4-((5-(1-(Difluoromethyl)-1H-pyrazol-3-yl)-2-((2-(1-(2-fluoroethyl)-1H-pyrazol-4-yl)pyrimidin-4-yl)amino)pyridin-4-yl)amino)-1-methylcyclohexan-1-ol] | 0.6 nM | 0.5 nM | 199 nM | 23 nM | 7.2 nM |
| CC(C)(O)[C@H]1CC[C@@H](Nc2cc(Nc3ccnc(-c4cnn(CC(F)F)c4)n3)ncc2-c2ccn(C(F)F)n2)CC1 [Example 148, 2-((1s,4s)-4-((2-((2-(1-(2,2-Difluoroethyl)-1H-pyrazol-4-yl)pyrimidin-4-yl)amino)-5-(1-(difluoromethyl)-1H-pyrazol-3-yl)pyridin-4-yl)amino)cyclohexyl)propan-2-ol] | 1.4 nM | 1.7 nM | 128 nM | 75.5 nM | 27 nM |
| C[C@]1(O)CC[C@@H](Nc2cc(Nc3ccnc(-c4cnn(C(F)F)c4)n3)ncc2-c2ccn(C(F)F)n2)CC1 [Example 149, (1s,4s)-4-((5-(1-(Difluoromethyl)-1H-pyrazol-3-yl)-2-((2-(1-(difluoromethyl)-1H-pyrazol-4-yl)pyrimidin-4-yl)amino)pyridin-4-yl)amino)-1-methylcyclohexan-1-ol] | 2.7 nM | 2.7 nM | 1730 nM | 144 nM | 47.2 nM |
| CS(=O)(=O)Cn1cc(-c2nccc(Nc3cc(N[C@H]4CC[C@@](C)(O)CC4)c(-c4ccn(C(F)F)n4)cn3)n2)cn1 [Example 150, (1s,4s)-4-((5-(1-(Difluoromethyl)-1H-pyrazol-3-yl)-2-((2-(1-((methylsulfonyl)methyl)-1H-pyrazol-4-yl)pyrimidin-4-yl)amino)pyridin-4-yl)amino)-1-methylcyclohexan-1-ol] | 1.6 nM | 1.2 nM | 104 nM | 21.2 nM | 14.7 nM |

Second part, the compound after the results:

| IC50 (EGFR del19/T790M/C797S) | IC50 (EGFR L858R/T790M/C797S) | IC50 (EGFR wildtype (WT)) | IC50 (EGFR del19/C797S) | IC50 (EGFR L858R/C797S) | SMILES |
| --- | --- | --- | --- | --- | --- |
| 1.1 nM | 0.4 nM | 19.9 nM | 10.8 nM | 4.7 nM | OCC[C@H]1CC[C@@H](Nc2cc(Nc3ccnc(-c4cnn(CC(F)F)c4)n3)ncc2-c2ccn(C(F)F)n2)CC1 [Example 146, 2-((1s,4s)-4-((2-((2-(1-(2,2-Difluoroethyl)-1H-pyrazol-4-yl)pyrimidin-4-yl)amino)-5-(1-(difluoromethyl)-1H-pyrazol-3-yl)pyridin-4-yl)amino)cyclohexyl)ethan-1-ol] |
| 1.6 nM | 0.9 nM | 72 nM | 43.5 nM | 4.7 nM | O=S(=O)(C1CC1)n1cc(-c2nccc(Nc3cc(N[C@H]4CC[C@@H](F)CC4)c(-c4ccn(C(F)F)n4)cn3)n2)cn1 [Example 151, N^2-(2-(1-(Cyclopropylsulfonyl)-1H-pyrazol-4-yl)pyrimidin-4-yl)-5-(1-(difluoromethyl)-1H-pyrazol-3-yl)-N^4-((1s,4s)-4-fluorocyclohexyl)pyridine-2,4-diamine] |
| 8.5 nM | 3.5 nM | 85.1 nM | 118 nM | 16.1 nM | Cn1ccc(-c2cnc(Nc3ccnc(-c4cnn(S(=O)(=O)C5CC5)c4)n3)cc2NCC2CCC(C(F)F)CC2)n1 (stereo not shown) [Example 152, N^2-(2-(1-(Cyclopropylsulfonyl)-1H-pyrazol-4-yl)pyrimidin-4-yl)-N^4-((4-(difluoromethyl)cyclohexyl)methyl)-5-(1-methyl-1H-pyrazol-3-yl)pyridine-2,4-diamine] |
| 0.1 nM | 0.1 nM | 3.9 nM | 1.3 nM | 0.1 nM | O=S(=O)(C1CC1)n1cc(-c2nccc(Nc3cc(NN4CCC(O)CC4)c(-c4ccn(C(F)F)n4)cn3)n2)cn1 [Example 153, 1-((2-((2-(1-(Cyclopropylsulfonyl)-1H-pyrazol-4-yl)pyrimidin-4-yl)amino)-5-(1-(difluoromethyl)-1H-pyrazol-3-yl)pyridin-4-yl)amino)piperidin-4-ol] |
